The values below come from the NIST ThermoML archive (doi:10.1016/j.jct.2012.07.007).

The structures appear in SMILES notation. Numbers after ± are expanded uncertainties.

The conditions of this series: 101.33 kPa, Liquid; for speed of sound: Linear variable-path acoustic interferometer; for mass density: Vibrating tube method.

By speed of sound is commonly meant how fast a sound wave travels through the sample. A word on the mass density: it is the mass of a sample divided by its volume. As for `CCn1cc[n+](C)c1.F[B-](F)(F)F` [1-ethyl-3-methylimidazolium tetrafluoroborate], the speed of sound (293.15 K) is reported as 1631 ± 2.6 m/s, the speed of sound (298.15 K) is listed as 1619.4 ± 2.6 m/s, the speed of sound (303.15 K) is 1607.6 ± 2.6 m/s and the speed of sound (308.15 K) was found to be 1596.3 ± 2.6 m/s. Moreover, the mass density by setting is: (293.15 K) 1283.89 ± 1.5 kg/m3; (298.15 K) 1279.91 ± 1.5 kg/m3; (303.15 K) 1276.26 ± 1.5 kg/m3; (308.15 K) 1272.07 ± 1.4 kg/m3.

Turning to `Cc1ccccn1` [2-methylpyridine], the speed of sound is reported as 1400.5 ± 2.5 m/s (293.15 K), 1380.1 ± 2.5 m/s (298.15 K), 1361 ± 2.5 m/s (303.15 K) and 1339.9 ± 2.5 m/s (308.15 K). Moreover, the mass density is, setting by setting: (293.15 K) 944.401 ± 0.77 kg/m3; (298.15 K) 939.802 ± 0.77 kg/m3; (303.15 K) 935.117 ± 0.76 kg/m3; (308.15 K) 930.414 ± 0.76 kg/m3.

As for `Cc1cccnc1` [3-methylpyridine], the speed of sound came to 1445.9 ± 1.8 m/s (293.15 K), 1424 ± 1.8 m/s (298.15 K), 1404 ± 1.8 m/s (303.15 K) and 1384 ± 1.8 m/s (308.15 K). Besides, the mass density (293.15 K) amounted to 956.581 ± 0.23 kg/m3, the mass density (298.15 K) is given as 952.002 ± 0.23 kg/m3, the mass density (303.15 K) is 947.449 ± 0.23 kg/m3 and the mass density (308.15 K) is 942.831 ± 0.23 kg/m3.

Turning to `Cc1ccncc1` [4-methylpyridine], the speed of sound is on record as 1451.1 ± 1.8 m/s (293.15 K), 1431.5 ± 1.8 m/s (298.15 K), 1410.7 ± 1.8 m/s (303.15 K) and 1389.9 ± 1.8 m/s (308.15 K). The mass density was determined as 955.099 ± 0.23 kg/m3 (293.15 K), 950.179 ± 0.23 kg/m3 (298.15 K), 945.413 ± 0.23 kg/m3 (303.15 K) and 940.821 ± 0.23 kg/m3 (308.15 K).

`c1ccncc1` [pyridine]: the speed of sound (293.15 K) amounted to 1442 ± 1.8 m/s, the speed of sound (298.15 K) was found to be 1417.8 ± 1.8 m/s, the speed of sound (303.15 K) stood at 1398 ± 1.8 m/s and the speed of sound (308.15 K) is recorded as 1377.1 ± 1.8 m/s. For the same molecule, the mass density worked out at 983.191 ± 0.23 kg/m3 (293.15 K), 978.249 ± 0.23 kg/m3 (298.15 K), 973.224 ± 0.23 kg/m3 (303.15 K) and 968.166 ± 0.23 kg/m3 (308.15 K).
